Results as given in patent EP4186382A1, “MESH MATERIALS FOR CONTROLLED RELEASE OF ANTIVIRALS, METHOD AND USE” (Universidade Federal de Minas Gerais, priority 2020, dated 2022).
Values joined by “and” are separate entries in the source; they are usually repeats but may differ in a detail not shown here. Equal entries are not always repeated. Where two headings read alike, the source gives them in different places.

How the values were obtained:
[1] = system: Coronavirus (MHV-3 Strain); assay type: cell-based, Coronavirus MHV-3 Strain genus Betacoronavirus
[2] = Solubility in water when preparing calibration standards; assay type: physicochemical
Protocol: The calibration curve used the following standards: Standard #1 - 99.5% chlorhexidine (CAS 55-56-1) from Sigma-Aldrich, Standard #2 - 20% solution of chlorhexidine digluconate in solution (CAS 18472-51-0). Samples with both standards were prepared in deionized water. […] With Standard #2 it was possible to obtain a good reproducibility of the areas; therefore, it was decided to perform the calibration curve with standard #2.

N=C(NCCCCCCNC(=N)NC(=N)Nc1ccc(Cl)cc1)NC(=N)Nc1ccc(Cl)cc1 [5% Chlorhexidine, 1,1'-hexamethylene-bis(5-(p-chlorophenyl)-biguanide)]
time after which activity was lost ([1]; concentration of 5%): ≤ 10 min | Infectivity Reduction (Virus Titer 10^8/mL) ([1]; contact time 1 minute): 10^4 | Coronavirus (MHV-3 Strain) inactivation ([1]; contact time 1 minute, listed as Chlorhexidine 5.0%): 99.99% | Infectivity Reduction (Virus Titer 10^8/mL) ([1]; contact time 5 minutes): 10^4 | Coronavirus (MHV-3 Strain) inactivation ([1]; contact time 5 minutes, listed as Chlorhexidine 5.0%): 99.99% | Coronavirus (MHV-3 Strain) inactivation ([1]; contact time 10 minutes): 99.9% and 99.99% | Infectivity Reduction (Virus Titer 10^8/mL) ([1]; contact time 10 minutes): 10^5 | Coronavirus (MHV-3 Strain) inactivation ([1]; contact time 10 minutes, listed as Chlorhexidine 5.0%): 99.9% | Coronavirus (MHV-3 Strain) inactivation ([1]; contact time 1 hour): Not effective | Coronavirus (MHV-3 Strain) inactivation ([1]; contact time 4 hours): Not effective | Coronavirus (MHV-3 Strain) inactivation ([1]; contact time Immediate): Not Effective

[H]/N=C(\N/C(=N/[H])NCCCCCCNC(=N)NC(=N)Nc1ccc(Cl)cc1)Nc1ccc(Cl)cc1 [Chlorhexidine, 1,1'-hexamethylene-bis(5-(p-chlorophenyl)-biguanide)]
solubility in water [2]: very low solubility in water

N=C(NCCCCCCNC(=N)NC(=N)Nc1ccc(Cl)cc1)NC(=N)Nc1ccc(Cl)cc1.O=C(O)[C@H](O)[C@@H](O)[C@H](O)[C@H](O)CO.O=C(O)[C@H](O)[C@@H](O)[C@H](O)[C@H](O)CO [chlorhexidine digluconate]
solubility in water ([2]; deionized water): no solubility problems
